{"source": "patent US20100179225A1", "about": "“POI Prevention” (CYTOKINE PHARMASCIENCES, INC., priority 2008, published 2010)", "key": {"nitric oxide in serum": {"tested_on": "nitric oxide in serum", "experiment": "Nitrite and nitrate in serum after small intestinal transplantation (Nitrate/Nitrite Colorimetric Assay kit)", "type": "in vivo, Lewis rats", "settings": "1 mg/kg i.v.", "method": "(§1) Syngeneic orthotopic small intestinal transplantation was performed in Lewis rats as previously described (Schwarz N T, Nakao A, Nalesnik M A, Kalff J C, Murase N, Bauer A J. Protective effects of ex vivo graft radiation and tacrolimus on syngeneic transplanted rat small bowel motility. Surgery 2002; 131: 413-423). […] Then the graft vascular bed was perfused with chilled UW solution (University of Wisconcin) and the intestinal lumen was irrigated with 50 ml cold 0.9% NaCl solution containing […]. neomycin sulfate (Uro Nebacetin N, Nycomed, Germany). The graft was stored in cold UW solution during the preparation of the recipient. An end-to-side anastomosis between the graft aorta and the recipient infra-renal aorta, and between the graft vein and recipient vena cava, was performed. Approximately 80% of the recipient intestine was removed and enteric continuity was restored by proximal and distal end-to-end intestinal anastomoses.\n(§2) To investigate the effect of CPSI-2364 on postoperative small bowel ischemia/reperfusion injury and muscular function, CPSI-2364 (1 mg/kg bodyweight, solved in 2.5% mannitol) or vehicle (2.5% mannitol) were administered intravenously once to the donor and the recipient 90 minutes before the beginning of the organ retrieval operation as well as the transplantation procedure that was described above. […]"}, "IL-6": {"tested_on": "IL-6", "experiment": "Serum IL-6 after small intestinal transplantation (ELISA)", "type": "in vivo, Lewis rats", "settings": "1 mg/kg i.v.", "method": "as §1, §2"}, "JNK/SAPK": {"tested_on": "JNK/SAPK", "settings": "v-myc immortalized spleen derived macrophage cell line; Lowenberg et al. J Immunol 2005; cited from earlier work"}}}
{"smiles": "C/C(=N\\NC(=N)N)c1cc(NC(=O)CCCCCCCCC(=O)Nc2cc(/C(C)=N/NC(=N)N)cc(/C(C)=N/NC(=N)N)c2)cc(/C(C)=N/NC(=N)N)c1", "note": "[Semapimod]", "values": [{"measurement": "nitric oxide levels within the serum", "setting": "nitric oxide in serum; 3 hours after reperfusion", "result": 0.17, "unit": "µmol/L"}, {"measurement": "nitric oxide levels within the serum", "setting": "nitric oxide in serum; 18 hours after reperfusion", "result": 1.69, "unit": "µmol/L"}, {"measurement": "release of IL-6 (serum)", "setting": "IL-6; after 3 hours", "result": 345, "unit": "pg/mL"}, {"measurement": "release of IL-6 (serum)", "setting": "IL-6; after 18 hours", "result": 35, "unit": "pg/mL"}, {"measurement": "JNK/SAPK phosphorylation", "setting": "JNK/SAPK", "result": "reduce JNK/SAPK phosphorylation"}]}
